Laboratory results from patent publication US9549932B2, “2-(morpholin-4-yl)-1,7-naphthyridines” (BAYER PHARMA AKTIENGESELLSCHAFT, priority 2014, dated 2017).

Biological target: full-length human ATR protein (Homo sapiens (Human), UniProt Q13535)
Assay: Binding assay ATR (TR-FRET tracer displacement)
Conditions: tracer A, TR-FRET; read-out: ATR binding (tracer A) IC50
Method in brief: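 Full-length human GST-ATR co-purified with ATRIP, pre-complexed 30 min at 22 °C with anti-GST-Tb antibody, then pre-bound with compound 10 min. Tracer A or B added (2 µl of 100 nM solution), 30 min at 22 °C.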

Sequence of full-length human ATR protein (Q13535 other isoform, or with tags, fused parts or gaps): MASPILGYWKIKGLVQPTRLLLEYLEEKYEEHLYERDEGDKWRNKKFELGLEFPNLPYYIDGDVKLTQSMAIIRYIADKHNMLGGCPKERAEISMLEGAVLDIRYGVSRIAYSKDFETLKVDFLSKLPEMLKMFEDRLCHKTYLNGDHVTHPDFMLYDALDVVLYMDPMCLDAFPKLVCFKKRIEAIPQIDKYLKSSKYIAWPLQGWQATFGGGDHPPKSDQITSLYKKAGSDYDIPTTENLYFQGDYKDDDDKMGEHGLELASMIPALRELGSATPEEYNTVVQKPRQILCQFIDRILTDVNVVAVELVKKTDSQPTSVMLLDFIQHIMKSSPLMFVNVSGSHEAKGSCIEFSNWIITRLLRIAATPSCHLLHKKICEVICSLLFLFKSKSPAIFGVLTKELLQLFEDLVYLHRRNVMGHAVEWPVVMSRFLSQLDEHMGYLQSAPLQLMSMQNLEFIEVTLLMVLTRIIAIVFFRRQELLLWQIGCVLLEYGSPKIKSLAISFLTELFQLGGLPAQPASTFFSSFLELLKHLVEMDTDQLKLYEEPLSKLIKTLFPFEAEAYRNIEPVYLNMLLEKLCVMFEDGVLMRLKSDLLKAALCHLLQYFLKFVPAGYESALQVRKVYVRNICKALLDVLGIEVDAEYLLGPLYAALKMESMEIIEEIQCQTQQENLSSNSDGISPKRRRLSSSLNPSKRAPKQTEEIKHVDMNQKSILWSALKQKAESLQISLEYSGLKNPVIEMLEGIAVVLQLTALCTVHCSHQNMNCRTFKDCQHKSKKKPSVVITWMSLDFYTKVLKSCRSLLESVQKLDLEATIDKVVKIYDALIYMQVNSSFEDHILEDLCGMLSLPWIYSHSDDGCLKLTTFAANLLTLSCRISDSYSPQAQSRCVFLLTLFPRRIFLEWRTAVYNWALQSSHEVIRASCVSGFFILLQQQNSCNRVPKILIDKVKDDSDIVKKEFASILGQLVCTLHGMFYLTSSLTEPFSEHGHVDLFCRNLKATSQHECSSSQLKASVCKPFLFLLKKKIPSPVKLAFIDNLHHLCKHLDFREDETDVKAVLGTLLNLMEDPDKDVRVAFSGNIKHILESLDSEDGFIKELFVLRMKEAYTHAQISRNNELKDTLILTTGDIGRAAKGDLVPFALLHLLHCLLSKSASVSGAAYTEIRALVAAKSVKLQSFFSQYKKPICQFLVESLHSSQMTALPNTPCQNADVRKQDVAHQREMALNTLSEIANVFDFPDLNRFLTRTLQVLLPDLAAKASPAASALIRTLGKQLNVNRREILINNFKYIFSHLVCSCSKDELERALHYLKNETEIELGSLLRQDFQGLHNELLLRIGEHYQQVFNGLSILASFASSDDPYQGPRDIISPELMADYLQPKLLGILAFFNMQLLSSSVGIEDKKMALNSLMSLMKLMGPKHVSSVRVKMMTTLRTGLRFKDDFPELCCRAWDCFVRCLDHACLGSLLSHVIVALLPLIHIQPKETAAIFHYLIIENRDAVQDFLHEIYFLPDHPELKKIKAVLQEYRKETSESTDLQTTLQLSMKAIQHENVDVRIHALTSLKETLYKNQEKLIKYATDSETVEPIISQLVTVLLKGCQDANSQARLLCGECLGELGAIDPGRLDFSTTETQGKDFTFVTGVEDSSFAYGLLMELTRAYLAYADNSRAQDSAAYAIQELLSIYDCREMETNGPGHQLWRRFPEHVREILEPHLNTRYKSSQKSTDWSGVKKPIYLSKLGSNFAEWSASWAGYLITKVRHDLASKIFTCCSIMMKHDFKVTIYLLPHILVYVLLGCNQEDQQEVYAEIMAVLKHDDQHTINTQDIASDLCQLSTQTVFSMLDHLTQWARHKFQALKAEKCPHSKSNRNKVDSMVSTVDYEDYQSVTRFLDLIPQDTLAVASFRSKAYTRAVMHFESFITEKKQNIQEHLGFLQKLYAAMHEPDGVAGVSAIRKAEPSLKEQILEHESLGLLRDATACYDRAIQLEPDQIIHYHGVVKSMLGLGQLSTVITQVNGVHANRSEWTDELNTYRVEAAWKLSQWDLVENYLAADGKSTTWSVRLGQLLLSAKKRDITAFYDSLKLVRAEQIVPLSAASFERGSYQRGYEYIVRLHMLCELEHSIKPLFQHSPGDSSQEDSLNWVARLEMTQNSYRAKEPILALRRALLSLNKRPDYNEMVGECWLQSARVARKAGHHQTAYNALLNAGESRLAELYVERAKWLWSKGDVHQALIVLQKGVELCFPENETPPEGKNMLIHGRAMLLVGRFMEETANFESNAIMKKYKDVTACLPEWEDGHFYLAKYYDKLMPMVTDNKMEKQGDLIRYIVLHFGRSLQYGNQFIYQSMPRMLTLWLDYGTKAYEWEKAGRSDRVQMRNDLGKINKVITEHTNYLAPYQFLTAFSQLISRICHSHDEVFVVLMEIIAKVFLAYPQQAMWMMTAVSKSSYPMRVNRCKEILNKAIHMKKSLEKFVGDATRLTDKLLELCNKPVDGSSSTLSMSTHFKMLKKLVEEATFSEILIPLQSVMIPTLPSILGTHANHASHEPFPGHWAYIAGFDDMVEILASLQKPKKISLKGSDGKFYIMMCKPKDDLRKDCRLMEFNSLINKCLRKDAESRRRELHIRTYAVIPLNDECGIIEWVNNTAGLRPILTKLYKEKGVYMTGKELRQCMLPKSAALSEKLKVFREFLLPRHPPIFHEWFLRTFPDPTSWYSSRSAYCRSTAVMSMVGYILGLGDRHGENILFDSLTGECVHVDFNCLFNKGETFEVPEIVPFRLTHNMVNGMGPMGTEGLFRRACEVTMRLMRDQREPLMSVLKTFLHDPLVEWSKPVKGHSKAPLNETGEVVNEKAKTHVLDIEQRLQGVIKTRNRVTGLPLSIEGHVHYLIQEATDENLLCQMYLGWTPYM
Sequence of full-length human ATR protein (Q8WXE1 other isoform, or with tags, fused parts or gaps partner): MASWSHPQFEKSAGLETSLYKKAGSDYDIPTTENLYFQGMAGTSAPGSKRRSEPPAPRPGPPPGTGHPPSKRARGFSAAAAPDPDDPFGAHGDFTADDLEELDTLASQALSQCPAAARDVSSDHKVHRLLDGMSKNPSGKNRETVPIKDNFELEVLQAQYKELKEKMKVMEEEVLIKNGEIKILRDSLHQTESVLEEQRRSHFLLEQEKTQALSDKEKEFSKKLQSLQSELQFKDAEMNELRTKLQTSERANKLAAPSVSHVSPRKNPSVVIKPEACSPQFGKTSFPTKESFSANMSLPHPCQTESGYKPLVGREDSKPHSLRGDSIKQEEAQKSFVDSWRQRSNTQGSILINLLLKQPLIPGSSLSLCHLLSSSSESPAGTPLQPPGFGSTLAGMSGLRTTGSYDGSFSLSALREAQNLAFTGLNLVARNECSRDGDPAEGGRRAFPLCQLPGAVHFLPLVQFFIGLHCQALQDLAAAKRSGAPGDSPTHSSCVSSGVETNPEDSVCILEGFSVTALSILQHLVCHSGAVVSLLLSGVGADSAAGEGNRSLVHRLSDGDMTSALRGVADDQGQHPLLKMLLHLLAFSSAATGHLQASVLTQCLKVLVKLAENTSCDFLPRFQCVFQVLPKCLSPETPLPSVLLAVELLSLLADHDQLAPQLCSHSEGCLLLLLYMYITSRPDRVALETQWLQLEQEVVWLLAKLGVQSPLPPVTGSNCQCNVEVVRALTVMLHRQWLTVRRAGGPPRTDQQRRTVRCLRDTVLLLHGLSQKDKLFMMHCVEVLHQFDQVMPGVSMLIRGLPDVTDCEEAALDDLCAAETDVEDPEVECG

| SMILES | IC50 [nM] |
| --- | --- |
| CN(C)c1cc(N2CCOCC2)nc2c(-c3ccn[nH]3)nccc12 [Example 206, N,N-dimethyl-2-(morpholin-4-yl)-8-(1H-pyrazol-5-yl)-1,7-naphthyridin-4-amine] | 404 |
| CS(=O)(=NC#N)c1ccc(-c2cc(N3CCOCC3)nc3c(-c4ccn[nH]4)nccc23)cc1 (centres unmarked) [Example 191, (methyl{4-[2-(morpholin-4-yl)-8-(1H-pyrazol-5-yl)-1,7-naphthyridin-4-yl]phenyl}oxido-λ^6-sulfanylidene)cyanamide] | 44.1 |
| c1cc2c(C3CCOCC3)cc(N3CCOCC3)nc2c(-c2cc[nH]n2)n1 [Example 60, 2-(morpholin-4-yl)-8-(1H-pyrazol-5-yl)-4-(tetrahydro-2H-pyran-4-yl)-1,7-naphthyridine] | 24.1 |
| CCP(=O)(CC)c1cc(N2CCOC[C@H]2C)nc2c(-c3ccn[nH]3)nccc12 [Example 143, 4-(diethylphosphoryl)-2-[(3R)-3-methylmorpholin-4-yl]-8-(1H-pyrazol-5-yl)-1,7-naphthyridine] | 27.7 |
| C[C@@H]1COCCN1c1cc(N2CCC[C@H]2C(N)=O)c2ccnc(-c3ccn[nH]3)c2n1 [Example 154, 1-{2-[(3R)-3-methylmorpholin-4-yl]-8-(1H-pyrazol-5-yl)-1,7-naphthyridin-4-yl}prolinamide] | 55 |
| Oc1ccc(-c2cc(N3CCOCC3)nc3c(-c4ccn[nH]4)nccc23)cc1 [Example 326, 4-[2-(morpholin-4-yl)-8-(1H-pyrazol-5-yl)-1,7-naphthyridin-4-yl]phenol] | 73.2 |
| c1ccc2c(-c3cc(N4CCOCC4)nc4c(-c5ccn[nH]5)nccc34)cncc2c1 [Example 363, 4-(isoquinolin-4-yl)-2-(morpholin-4-yl)-8-(1H-pyrazol-5-yl)-1,7-naphthyridine] | 191 |
| C[C@H]1CN(c2cc(N3CCOCC3)nc3c(-c4ccn[nH]4)nccc23)CCO1 [Example 170, 4-[(2S)-2-methylmorpholin-4-yl]-2-(morpholin-4-yl)-8-(1H-pyrazol-5-yl)-1,7-naphthyridine] | 168 |
| CS(=O)(=O)Nc1ccccc1-c1cc(N2CCOCC2)nc2c(-c3ccn[nH]3)nccc12 [Example 322, N-{2-[2-(morpholin-4-yl)-8-(1H-pyrazol-5-yl)-1,7-naphthyridin-4-yl]phenyl}methanesulfonamide] | 80.9 |
| C[C@@H]1COCCN1c1cc(N(C)CC(C)(C)C)c2ccnc(-c3ccn[nH]3)c2n1 [Example 83, N-(2,2-dimethylpropyl)-N-methyl-2-[(3R)-3-methylmorpholin-4-yl]-8-(1H-pyrazol-5-yl)-1,7-naphthyridin-4-amine] | 5.38 |
| CP(C)(=O)c1cc(N2CCOCC2)nc2c(-c3ccn[nH]3)nccc12 [Example 177, 4-(dimethylphosphoryl)-2-(morpholin-4-yl)-8-(1H-pyrazol-5-yl)-1,7-naphthyridine] | 250 |
| Cc1ccc2c(c1)cc(-c1cc(N3CCOCC3)nc3c(-c4ccn[nH]4)nccc13)n2C(=O)OC(C)(C)C [Example 377, tert-butyl 5-methyl-2-[2-(morpholin-4-yl)-8-(1H-pyrazol-5-yl)-1,7-naphthyridin-4-yl]-1H-indole-1-carboxylate] | 2990 |
| NC(=O)C1CCCN(c2cc(N3CCOCC3)nc3c(-c4ccn[nH]4)nccc23)C1 (centres unmarked) [Example 416, 1-[2-(morpholin-4-yl)-8-(1H-pyrazol-5-yl)-1,7-naphthyridin-4-yl]piperidine-3-carboxamide] | 251 |
| C[C@@H]1COCCN1c1cc(N2CCC(CO)CC2)c2ccnc(-c3ccn[nH]3)c2n1 [Example 84, (1-{2-[(3R)-3-methylmorpholin-4-yl]-8-(1H-pyrazol-5-yl)-1,7-naphthyridin-4-yl}piperidin-4-yl)methanol] | 6.6 |
| CC(C)Oc1cc(N2CCOC[C@H]2C)nc2c(-c3cc[nH]n3)nccc12 [Example 51, 4-isopropoxy-2-((R)-3-methylmorpholin-4-yl)-8-(1H-pyrazol-3-yl)-[1,7]naphthyridine] | 38 |

Same assay, conditions: tracer B, TR-FRET; read-out: ATR binding (tracer B) IC50

| SMILES | IC50 [nM] |
| --- | --- |
| c1cc2c(C3CCOCC3)cc(N3CCOCC3)nc2c(-c2cc[nH]n2)n1 [Example 60, 2-(morpholin-4-yl)-8-(1H-pyrazol-5-yl)-4-(tetrahydro-2H-pyran-4-yl)-1,7-naphthyridine] | 15.7 |
| CC(C)Oc1cc(N2CCOC[C@H]2C)nc2c(-c3cc[nH]n3)nccc12 [Example 51, 4-isopropoxy-2-((R)-3-methylmorpholin-4-yl)-8-(1H-pyrazol-3-yl)-[1,7]naphthyridine] | 23.3 |
